Consider four compounds from publication PMC10313705, “Structure and transport mechanism of the human calcium pump SPCA1” (Cell Research, 2023).

Assay [1] has as its target T1, hSPCA1 (hSPCA1a) (Homo sapiens, UniProt P98194).
T1 sequence (P98194 1-919): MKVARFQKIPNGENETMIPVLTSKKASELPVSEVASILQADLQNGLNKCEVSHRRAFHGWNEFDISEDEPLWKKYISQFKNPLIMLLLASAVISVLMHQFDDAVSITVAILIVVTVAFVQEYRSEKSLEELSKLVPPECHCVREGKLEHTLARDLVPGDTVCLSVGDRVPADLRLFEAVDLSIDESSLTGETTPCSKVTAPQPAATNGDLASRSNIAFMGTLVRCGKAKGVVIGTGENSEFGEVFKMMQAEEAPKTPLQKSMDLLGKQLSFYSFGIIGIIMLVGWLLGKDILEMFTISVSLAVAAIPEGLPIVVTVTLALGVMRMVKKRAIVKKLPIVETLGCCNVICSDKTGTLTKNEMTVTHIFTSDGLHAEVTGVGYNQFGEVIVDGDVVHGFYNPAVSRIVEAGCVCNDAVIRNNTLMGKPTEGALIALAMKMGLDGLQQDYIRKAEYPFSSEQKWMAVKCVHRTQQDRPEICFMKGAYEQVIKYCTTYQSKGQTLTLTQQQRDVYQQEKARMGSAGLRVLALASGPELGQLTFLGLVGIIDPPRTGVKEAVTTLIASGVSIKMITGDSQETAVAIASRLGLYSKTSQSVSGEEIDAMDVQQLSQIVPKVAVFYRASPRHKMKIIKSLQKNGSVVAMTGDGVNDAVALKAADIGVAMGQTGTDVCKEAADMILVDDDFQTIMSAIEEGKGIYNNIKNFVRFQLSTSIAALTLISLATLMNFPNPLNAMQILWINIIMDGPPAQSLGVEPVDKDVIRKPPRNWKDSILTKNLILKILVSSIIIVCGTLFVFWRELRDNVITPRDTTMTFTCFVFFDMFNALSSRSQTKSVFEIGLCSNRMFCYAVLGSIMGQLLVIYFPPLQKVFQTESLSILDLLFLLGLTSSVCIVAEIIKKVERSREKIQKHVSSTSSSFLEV
The assay can be described thus: cryo-EM structure ([…] Å). Format: binding. More on the design: gene ATP2C1; full-length (Met1-Val919), C-terminal 2x Strep tag, expressed in HEK293F cells, purified in DDM/CHS then digitonin; residues 1-15 and 906-919 not modelled. The conditions noted are these: CaE1P-ADP state; 5 mM ADP, 5 mM NaF, 1 mM AlCl3; Ca2+, Mg2+, pH 8.0.

Assay [2] concerns the target T1, hSPCA1 (hSPCA1a). Further details: gene ATP2C1. Conditions: ATP hydrolysis by purified protein in digitonin.
Assay [3] has as its target T1, hSPCA1 (hSPCA1a). In words: cryo-EM structure. It is filed as binding. Further details: gene ATP2C1; full-length (Met1-Val919), C-terminal 2x Strep tag, expressed in HEK293F cells, purified in DDM/CHS then digitonin; residues 1-15 and 906-919 not modelled. Conditions: phosphate transition-state analogue at Asp350; E2~P state; 10 mM NaF, 2 mM AlCl3, Mg2+, no added Ca2+, pH 8.0.

In assay [4] the target is T1, hSPCA1 (hSPCA1a). Further details: gene ATP2C1. The conditions noted are these: phosphate analogue at Asp350; 10 mM NaF, 2 mM BeSO4, 1 mM CaCl2, Mg2+, pH 8.0; CaE2P (8IWS) and early E2P (8IWT) states.

As for `Nc1ncnc2c1ncn2[C@@H]1O[C@H](COP(=O)(O)OP(=O)(O)O)[C@@H](O)[C@H]1O` [ADP], the “cryo-EM structure (3.71 Å)” value on hSPCA1 (hSPCA1a) [1] is “the ADP molecule (dark gray) in the CaE1P-ADP state”.

Regarding `Nc1ncnc2c1ncn2[C@@H]1O[C@H](COP(=O)(O)OP(=O)(O)OP(=O)(O)O)[C@@H](O)[C@H]1O` [ATP], the “ATPase assay, Pi release kit (absorbance at 636 nm)” value at hSPCA1 (hSPCA1a) [2] is listed as “an ATPase activity assay demonstrated that it has ATP hydrolysis activity”.

Consider `[F][Al-]([F])([F])[F]` [AlF4^–], for which the cryo-EM structure result at hSPCA1 (hSPCA1a) [3] is “The EM densities derived from AlF4^– were clearly visible near Asp350”.

Consider `[F][Be-]([F])[F]` [BeF3^–], for which the “cryo-EM structures (3.42 Å CaE2P; 3.25 Å early E2P)” value at hSPCA1 (hSPCA1a) [4] is listed as “allowed us to trace the BeF3^– densities which were clearly visible near Asp350”.
